Test results: US20210317145A1, “Boronic Acid Derivatives” (Merck Patent GmbH, priority 2018, published 2021)

Experiments:
[1] = biological target: Beta5 (purified human constitutive proteasome) (Homo sapiens, UniProt P20618+P28074); experiment: Determination of Beta5 activity (fluorescence intensity assay, Suc-LLVY-AMC); assay type: biochemical; conditions: purified human constitutive proteasome 1.25 nM, incubation for 20 minutes at 25° C., Suc-LLVY-AMC 40 μM
Experimental: Determination of Beta5 Activity:
Measurement of Beta5 inhibition is performed in 384 well format based on fluorescence intensity assay.
(§1) Purified human constitutive proteasome (1.25 nM) and serial diluted compounds in DMSO (range of concentrations from 30 μM to […]) or controls are incubated for 20 minutes or 120 minutes (long incubation) at 25° C. in assay buffer containing 50 mM Tris pH 7.4, 0.03% SDS, 1 mM EDTA and 1% DMSO. The reaction is initiated by the addition of the fluorogenic peptide substrate, Suc-LLVY-AMC (Bachem 1-1395), at a concentration of 40 μM. After 60 minutes of incubation at 37° C., fluorescence intensity is measured at λex=350 nm and λem=450 nm with a fluorescence reader (Perkin Elmer Envision reader or equivalent).
(§2) Unless indicated otherwise the results are obtained after incubation for 20 minutes.

[2] = biological target: LMP7 (purified human immuno proteasome) (Homo sapiens, UniProt P20618+P28062); experiment: Determination of LMP7 activity (fluorescence intensity assay, Suc-LLVY-AMC); assay type: biochemical; conditions: for Selectivity LMP7 vs Beta5: LMP7 versus Beta5, incubation for 20 minutes; for IC50: purified human immuno proteasome 0.25 nM, incubation for 20 minutes at 25° C., Suc-LLVY-AMC 40 μM
Experimental: Determination of LMP7 Activity:
Measurement of LMP7 inhibition is performed in 384 well format based on fluorescence intensity assay.
as §1, with “immuno” for “constitutive”, “(0.25” for “(1.25”
as §2

Row | SMILES | IC50 [1] [nM] | Selectivity LMP7 vs Beta5 [2] | IC50 [2] [nM] | Selectivity LMP7 vs Beta5 ([2]; listed as drawing 86) | Selectivity LMP7 vs Beta5 ([2]; listed as drawing 87)
1 | CSC(C(=O)N[C@@H](Cc1coc2ccccc12)B(O)O)c1ccccc1 (single isomer, unassigned) [Compound 7] | 5000 to 30000 | ++ (100 ≤ Selectivity < 300) | ≤ 50 |  | 
2 | O=C(N[C@@H](Cc1coc2ccccc12)B(O)O)C1Cc2ccccc2O1 (single isomer, unassigned) [Compound 36] | 50 to 500 |  | ≤ 50 | + (Selectivity <100) | 
3 | O=C(N[C@@H](Cc1coc2ccccc12)B(O)O)C1Cc2ccccc2O1 (single isomer, unassigned) [Compound 37] | 500 to 5000 |  | ≤ 50 |  | +++ (300 ≤ Selectivity < 500)
4 | CSCC(=O)N[C@H](Cc1coc2c(C)cccc12)B(O)O [Compound 1, [(1S)-2-(7-methylbenzo-furan-3-yl)-1-[(2-methyl-sulfanylacetyl)amino]-ethyl]boronic acid] | 5000 to 30000 | ++ (100 ≤ Selectivity < 300) | 500 to 5000 |  | 
5 | CSCC(=O)N[C@@H](Cc1coc2c(C(F)(F)F)cccc12)B(O)O [Compound 3, [(1R)-1-[(2-methyl-sulfanylacetyl)amino]-2-[7-(trifluoromethyl)-benzofuran-3-yl]ethyl]-boronic acid] | 500 to 5000 | +++ (300 ≤ Selectivity < 500) | ≤ 50 |  | 
6 | COc1cccc2occ(C[C@H](NC(=O)CSC)B(O)O)c12 [Compound 4, [(1R)-2-(4-methoxy-benzofuran-3-yl)-1-[(2-methylsulfanylacetyl)-amino]ethyl]boronic acid] | 5000 to 30000 | + (Selectivity <100) | 500 to 5000 |  | 
7 | CSCC(=O)N[C@@H](C[C@@H]1COc2ccccc21)B(O)O [Compound 5, [(1R)-2-[(3S)-2,3-dihydrobenzofuran-3-yl]-1-[(2-methylsulfan-ylacetyl)amino]ethyl]-boronic acid] | 500 to 5000 | +++ (300 ≤ Selectivity < 500) | ≤ 50 |  | 
8 | CSCC(=O)N[C@@H](Cc1coc2c(C)cccc12)B(O)O [Compound 6, [(1R)-2-(7-methylbenzo-furan-3-yl)-1-[(2-methyl-sulfanylacetyl)amino]-ethyl]boronic acid] | 50 to 500 | ++ (100 ≤ Selectivity < 300) | ≤ 50 |  | 
9 | O=C(N[C@@H](Cc1coc2ccccc12)B(O)O)C1SCCS1 [Compound 8, [(1R)-2-(benzofuran-3-yl)-1-(1,3-dithiolane-2-carbonylamino)ethyl]-boronic acid] | 500 to 5000 | ++ (100 ≤ Selectivity < 300) | ≤ 50 |  | 
10 | CSCC(=O)NC(Cc1coc2c(F)cccc12)B(O)O (stereo not drawn) [Compound 9, [2-(7-fluorobenzofuran-3-yl)-1-[(2-methyl-sulfanylacetyl)amino]-ethyl]boronic acid] | 500 to 5000 | ++ (100 ≤ Selectivity < 300) | ≤ 50 |  | 
11 | CSCC(=O)N[C@@H](CC1COc2c(C)cccc21)B(O)O (stereo partly drawn) [Compound 10, [(1R)-2-(7-methyl-2,3-dihydrobenzofuran-3-yl)-1-[(2-methyl-sulfanylacetyl)amino]-ethyl]boronic acid] | 5000 to 30000 | ++++ (Selectivity ≥ 500) | ≤ 50 |  | 
12 | O=C(N[C@@H](Cc1coc2ccccc12)B(O)O)C1OCCS1 (stereo partly drawn) [Compound 11, [(1R)-2-(benzofuran-3-yl)-1-(1,3-oxathiolane-2-carbonylamino)ethyl]-boronic acid] | 50 to 500 | ++ (100 ≤ Selectivity < 300) | ≤ 50 |  | 
13 | CSCC(=O)N[C@@H](Cc1coc2c(F)cccc12)B(O)O [Compound 12, [(1R)-2-(7-fluorobenzo-furan-3-yl)-1-[(2-methyl-sulfanylacetyl)amino]-ethyl]boronic acid] | 50 to 500 | ++ (100 ≤ Selectivity < 300) | ≤ 50 |  | 
14 | CCSCC(=O)N[C@@H](Cc1coc2ccccc12)B(O)O [Compound 13, [(1R)-2-(benzofuran-3-yl)-1-[(2-ethylsulfanyl-acetyl)amino]ethyl]-boronic acid] | 500 to 5000 | +++ (300 ≤ Selectivity < 500) | ≤ 50 |  | 
15 | CSCC(=O)N[C@@H](Cc1coc2c(C)c(Cl)ccc12)B(O)O [Compound 14, [(1R)-2-(6-chloro-7-methylbenzofuran-3-yl)-1-[(2-methyl-sulfanylacetyl)amino]-ethyl]boronic acid] | 500 to 5000 | +++ (300 ≤ Selectivity < 500) | ≤ 50 |  | 
16 | O=C(CSCCCO)N[C@@H](Cc1coc2ccccc12)B(O)O [Compound 15, [(1R)-2-(benzofuran-3-yl)-1-[[2(3-hydroxy-propylsulfanyl)acetyl]-amino]ethyl]boronic acid] | 50 to 500 | + (Selectivity <100) | ≤ 50 |  | 
17 | CSCC(=O)N[C@@H](Cc1coc2c(Cl)cccc12)B(O)O [Compound 16, [(1R)-2-(7-chlorobenzo-furan-3-yl)-1-[(2-methylsulfanylacetyl)-amino]ethyl]boronic acid] | 50 to 500 | ++ (100 ≤ Selectivity < 300) | ≤ 50 |  | 
18 | O=C(N[C@@H](Cc1coc2ccccc12)B(O)O)C1CCCS1 (stereo partly drawn) [Compound 17, [(1R)-2-(benzofuran-3-yl)-1-(tetrahydrothio-phene-2-carbonyl-amino)ethyl]boronic acid] | 5000 to 30000 | ++ (100 ≤ Selectivity < 300) | ≤ 50 |  | 
19 | CSCC(=O)NC(CC1COc2ccccc21)B(O)O (stereo not drawn) [Compound 19, [2-(2,3-dihydrobenzo-furan-3-yl)-1-[(2-methylsulfanylacetyl)-amino]ethyl]boronic acid] | 5000 to 30000 | ++++ (Selectivity ≥ 500) | ≤ 50 |  | 
20 | CSCC(=O)NC(Cc1coc2c(C)c(Cl)ccc12)B(O)O (stereo not drawn) [Compound 20, [2-(6-chloro-7-methyl-benzofuran-3-yl)-1-[(2-methylsulfanylacetyl)-amino]ethyl]boronic acid] | 500 to 5000 | +++ (300 ≤ Selectivity < 500) | ≤ 50 |  | 
21 | CSCC(=O)N[C@@H](Cc1ccc(C)cc1C)B(O)O [Compound 21, [(1R)-2-(2,4-dimethyl-phenyl)-1-[(2-methyl-sulfanylacetyl)amino]-ethyl]boronic acid] | 500 to 5000 | ++ (100 ≤ Selectivity < 300) | ≤ 50 |  | 
22 | CSCC(=O)N[C@@H](Cc1coc2ccccc12)B(O)O [Compound 22, [(1R)-2-(benzofuran-3-yl)-1-[(2-methyl-sulfanylacetyl)-amino]ethyl]boronic acid] | 500 to 5000 | ++ (100 ≤ Selectivity < 300) | ≤ 50 |  | 
23 | CSCC(=O)N[C@H](Cc1coc2c(F)cccc12)B(O)O [Compound 23] | 5000 to 30000 | ++ (100 ≤ Selectivity < 300) | 50 to 500 |  | 
24 | O=C(CCO)N[C@@H](Cc1coc2ccccc12)B(O)O [Compound 24, [(1R)-2-(benzofuran-3-yl)-1-(3-hydroxypro-panoylamino)ethyl]-boronic acid] | 500 to 5000 | ++ (100 ≤ Selectivity < 300) | ≤ 50 |  | 
